By Kd is commonly meant the free concentration of one partner at which half of the binding sites on the other are occupied at equilibrium, for simple one-to-one binding.

From doi:10.1101/2025.10.13.682046v1 (biorxiv, 2025) come the findings set out here.

For the assay, the target named is CIP2A(1-560) (Homo sapiens, UniProt Q8TCG1). Briefly: microscale thermophoresis. Format: binding. For orientation: In MST a laser heats a spot of the sample, and binding alters the fluorescence response.

`CC(C)=CCC/C(C)=C/Cc1c(O)c(CC=C(C)C)c2c(c1O)C(=O)C1=C[C@@H]3C[C@H]4C(C)(C)O[C@@](C/C=C(/C)C(=O)NCCCCCNC(=O)CCCC[C@@H]5SC[C@@H]6NC(=O)N[C@@H]65)(C3=O)[C@@]14O2` [bGNA, biotinylated gambogenic acid] came in with a Kd of 4.2 µM.

`CC(C)=CCC[C@]1(C)C=Cc2c(O)c3c(c(CC=C(C)C)c2O1)O[C@]12C(=C[C@@H]4C[C@H]1C(C)(C)O[C@@]2(C/C=C(/C)C(=O)N1CCOCC1)C4=O)C3=O` [DAP-19] yielded a Kd of 8.4 µM. Against the preceding molecule, the Kd is about 2-fold higher.

On to `CC(C)=CCC[C@]1(C)C=Cc2c(O)c3c(c(CC=C(C)C)c2O1)O[C@]12C(=C[C@@H]4C[C@H]1C(C)(C)O[C@@]2(C/C=C(/C)C(=O)O)C4=O)C3=O` [GIA, Gambogic acid], for which the affinity, expressed as Kd, was 4.6 µM.
